# Test results published in a melting point compilation (Tetko et al.; mined from patent text by program, amines drawn as free bases though some values may be those of a salt).
row,Compound,melting point
1,CCn1c(=O)c2c(nc(/C=C/c3ccc(OCOC)c(OC)c3)n2C)n(CC)c1=O,179 to 181 °C
2,CCC1=CC(C)(C)Oc2c(OC)cc(Cc3cnc(N)nc3N)cc21,256 to 257 °C
3,O=C1CCC(N2C(=O)c3cccc(OCc4ccc(CN5CCSCC5)cc4)c3C2=O)C(=O)N1 (stereo unspecified),221 to 223 °C
4,CNC(=O)Oc1ccc(NC(=O)C(C)Oc2ccccc2)c(C)c1 (stereo unspecified),123 to 125 °C
5,OCCCSC(=S)Nc1ccccn1,93 °C
6,Cc1cccc2c1OC[C@H](NC(=O)OC(C)(C)C)C(=O)N2,179 °C
7,CC(C)(C)OC(=O)N1CCC(CCOc2ccc(C=NO)cc2)CC1,114 to 116 °C
8,CC1(C)Oc2ccc(C#N)cc2[C@@H](Br)[C@@H]1O (relative stereo),111 to 112 °C
9,CS(=O)(=O)N1CCn2c(nc3c(N)nc4cc(Br)ccc4c32)C1,315 to 317 °C
10,Cc1cccc2c(=O)[nH]c(=O)[nH]c12,170 °C
11,CCOC(=O)c1c(C)noc1C(=O)O,54 to 58 °C
12,O=C1Nc2cc(F)ccc2OC1CCO (stereo unspecified),126 to 130 °C
13,O=C(NO)c1ccc(OC/C=C/COc2ccc(C(=O)NO)cc2)cc1,205 to 210 °C
14,CN1CCN(Cc2ccc(NC(=O)c3nsc4cc(Oc5ccnc(N)n5)ccc34)cc2C(F)(F)F)CC1,215 to 217 °C
15,CCOC(=O)Cc1ccc2cc(O)ccc2c1,81 to 83 °C
16,N#CCOC(=O)CCCCc1c[nH]c2ccccc12,76 °C
17,Cc1nc(N)nc(N)c1-c1cc(Cl)cc(Cl)c1,242 to 244 °C
18,CCc1[nH]n(C2CCCC2)c2nc(-c3cccc(-n4ccnc4)c3)nc(=O)c1-2,264 to 265 °C
19,CCOC(=O)NS(=O)(=O)c1ccc2c(c1)CCO2,118 to 119 °C
20,CC(=O)N1c2ccc([N+](=O)[O-])cc2CC1C(C)(C)C (stereo unspecified),99 °C
21,CC(=O)NNC1=Nc2ccc(Cl)cc2C(c2c(F)cccc2F)=NC1,274 to 277 °C
22,CCCCn1nc(C(N)=O)cc1CC,60 to 61 °C
23,COc1ccc2sc(C(=O)OCC(C)(C)C(=O)C(C)(C)C)cc2c1,74 to 75.5 °C
24,CCCCCCCCCC/C=C/c1ccccc1/C=C/C(=O)O,85 to 86 °C
25,CSc1ccc(C=C2C=CC=C2)cc1,105 to 106 °C
26,FC(F)(F)c1cc2ncccc2cc1Cl,137 to 139 °C
27,CCCC(=O)Nc1ccc2c(c1)C(=O)c1cc(NC(=O)CCC)ccc1C2=O,275 °C

row,Compound,melting point
1,Cc1cc(C)c(C2C(=O)NC3(CCN(N(C)C)CC3)C2=O)c(C)c1 (stereo unspecified),237 to 241 °C
2,O=c1c2cc(F)c(N3CCCC3)cc2n(CCF)c(=O)n1O,228 to 230 °C
3,COC(=O)C1=C(C)NC(C)=C(C#N)C1c1cccc(N)c1 (stereo unspecified),234 to 235 °C
4,Clc1ccc2nccc(Cl)c2c1,101 to 104 °C
5,N#Cc1cc(F)c(-c2ncnc(C(F)(F)F)c2Cl)cc1[N+](=O)[O-],90 to 92 °C
6,CCCCCCCCCOc1ccc2c(c1)C(CCNC(=O)CCC)CC2 (stereo unspecified),53 to 55 °C
7,NN1CCN(Cc2c[nH]c3ccccc23)CC1,147 to 149 °C
8,Cc1ccc(C(=O)NCc2ccc3c(c2)CN(C2CCC(=O)NC2=O)C3=O)cc1Cl (stereo unspecified),229 to 231 °C
9,CC(CC#N)C(=O)c1ccc(C(=O)C(C)CC#N)cc1 (stereo unspecified),142 to 145 °C
10,CCOc1ncc(C(C)=O)cc1C(=O)O,117 to 118 °C
11,CCOc1ccc2c3c([nH]c2c1)CC(NC(C)=O)CC3 (stereo unspecified),184 to 186 °C
12,N#Cc1cc(C(=O)Nc2ccc(F)cn2)nc(C(F)(F)F)c1,186 °C
13,Cc1ccc2cc(C3=NCCS3)[nH]c2c1NS(=O)(=O)c1cccs1,183 to 184 °C
14,COc1cc([N+](=O)[O-])c2c(c1OC)C(=O)CC2,202 to 204 °C
15,COc1cc2c(c3c1OC(C)(C)C3)C(c1cccc(N3CCNC3=O)c1)=NC(C)(C)C2,225 to 227 °C
16,O=C(NN=Cc1cc(Cl)cc(Cl)c1O)c1cccc(OC(F)(F)F)c1,180 to 182 °C
17,CC(=O)N1N=C(c2ccc(N)c(C)c2)c2cc3c(cc2C[C@H]1C)OCO3,123 to 130 °C
18,COC(=O)[C@H](C)NC(=O)c1cccc([N+](=O)[O-])c1N,133 °C
19,O=C1CCCC(S(=O)(=O)c2ccccc2)C1 (stereo unspecified),83 to 85 °C
20,CC(C)(C)OC(=O)NCCNc1nnc(N)s1,219 to 220 °C
21,CC(=O)N1CCc2ccc(C(=O)CCCC3CCN(Cc4ccc(F)cc4)CC3)cc2CC1,92 to 94 °C
22,COC(=O)c1oc(C(C)(C)C)cc1NC(=O)Nc1ccc(F)cc1,81 to 82 °C
23,CC1OCCN1CCNc1ccc(NCCN2CCOC2C)c2c1C(=O)c1c(O)ccc(O)c1C2=O (stereo unspecified),161 to 168 °C
24,N#Cc1cccc(NCCC(=O)O)c1,119 °C
25,CCOC(=O)CC[C@H](NC(=O)c1ccc(NCCCc2c(N(C(C)=O)C(C)=O)nc(NC(C)=O)[nH]c2=O)c(OC)c1)C(=O)OCC,73 to 84 °C
26,Cc1cc(C(C)(C)C)cc(C)c1S(F)(F)F,59.1 °C
27,C=CCCCCCCCCNC(=O)N[C@H]1CCCNC(=O)C1,98 to 99 °C

# Results, then the compound that gave them:
row,melting point,Compound
1,105 to 115 °C,Cc1ccccc1-c1ccc(C(=O)N2Cc3ccc(C(=O)NCc4cccc(N)c4)n3Cc3ccccc32)cc1C
2,234 to 235 °C,CCc1ccc(-c2ccc(C(=O)N[C@@H]3CCc4cccc(N5CCN(C)CC5)c4C3)cc2)cc1
3,230 °C,CCc1ccccc1NC=C1C(=O)N(c2ccc(NC(C)=O)cc2)N=C1C
4,133 to 135 °C,O=C(O)C1CCCN1S(=O)(=O)c1ccc(-c2ccccc2)cc1 (stereo unspecified)
5,203 to 205 °C,COc1ccc(C(=O)C(C(=O)Nc2ccccc2Cl)N2C(=O)c3ccccc3C2=O)cc1[N+](=O)[O-] (stereo unspecified)
6,56 to 57 °C,CC=CC(=O)OCC(C)(Sc1cc2ccccc2n1C)c1ccccc1 (stereo unspecified)
7,234 to 237 °C,O=C1Cc2cc3ccccc3cc2C(c2ccccc2Cl)N1 (stereo unspecified)
8,178 to 179 °C,CCn1c(=O)n(OCc2ccccc2)c(=O)c2cc(F)c(N3CCN(C)CC3)nc21
9,217 to 220 °C,CCc1c2n(c3ccccc13)C(=O)C(=Cc1ncn(C(c3ccccc3)(c3ccccc3)c3ccccc3)c1C)CC2
10,247 to 255 °C,Cc1oc(-c2ccc(Cl)cc2)cc1C(=O)Nc1cc(Cl)ccc1-c1nnn[nH]1
11,182 to 183 °C,CSc1nccc(-c2c(-c3ccc(F)cc3)ncn2C2CCNCC2)n1
12,237 to 239 °C,Cc1c(NC(=O)CC(C)(C)C)c(C)c2c(c1-c1cccc(N)n1)OCC2c1ccc(C(C)C)cc1 (stereo unspecified)
13,223 to 227 °C,CN1C(=O)CC(c2ccccc2)C1C(O)c1ccc(C(=O)Nc2ccccc2)s1 (stereo unspecified)
14,225 to 230 °C,O=C1c2ccccc2C(=O)c2c1cc(CBr)c1c2CCC1
15,219 °C,COc1cc(-n2cnc3cc(-c4ccc(Cl)cc4)sc3c2=O)ccc1OCC1(OP(=O)(O)O)CC(F)(F)C1
16,248 to 249 °C,O=C1OC(c2ccccc2)(c2ccccc2)C2CN(S(=O)(=O)/C=C/c3ccc(F)cc3)CCN12 (stereo unspecified)
17,114 to 115 °C,COc1ccc(COCCC(C(=O)O)c2ccccc2)cc1 (stereo unspecified)
18,140 to 141 °C,CCc1nc2c(C)cc(C)nc2n1Cc1ccc(C(c2ccc(C)cc2)C(C(=O)O)C(=O)O)cc1 (stereo unspecified)
19,164 to 169 °C,O=c1ccc(C(c2ccccc2)c2ccc(Cl)cc2)c[nH]1 (stereo unspecified)
20,250 °C,Nc1c(C(=O)NC(Cc2ccc(OCc3ccccc3)cc2)C(=O)O)oc2cc(-c3ccc(Cl)cc3)ccc12 (stereo unspecified)
21,149 to 150 °C,N#Cc1cc(-c2ccccc2)cnc1Cl
22,48 to 55 °C,O=c1cc(O)cnn1Cc1ccccc1
23,129 to 130 °C,CCc1ccc(C(O)COc2ccc(CC3SC(=O)NC3=O)cc2)nc1 (stereo unspecified)
24,244 to 245 °C,O=c1c(CCO)c(O)c2cccnc2n1-c1cccc([N+](=O)[O-])c1

row,melting point,Compound
1,238 °C,COc1cc2ncnc(Nc3cccc(Br)c3)c2cc1OC(C)=O
2,56 to 58 °C,COc1ccc(F)c(NCc2ccccc2)c1
3,202 to 204 °C,CC(C)(C)CC(=O)N1C[C@@H](c2c[nH]c3ccccc23)[C@H](c2cn3c4c(cccc24)CCC3)C1
4,174 to 175 °C,CS(=O)(=O)c1ccc(-c2cnn(CC(F)(F)F)c(=O)c2-c2ccc(Cl)c(F)c2)cc1
5,213 to 216 °C,CCOC(=O)C1=C(C)NC(c2cscn2)=NC1c1ccc(O)cc1 (stereo unspecified)
6,173 to 175 °C,CC(C)CC(NC(=O)Cc1ccc(NC(=O)Nc2ccccc2Cl)cc1)c1ncc(CCC(=O)O)s1 (stereo unspecified)
7,249 °C,CCC(=O)NC1(c2ccccc2Cl)C(=O)N(Cc2ccc(C(=O)NC(C)(C)C)cc2OC)c2ccc(Cl)cc21 (stereo unspecified)
8,241 to 242 °C,NC(=O)C1=NN(c2ccccc2)C(C(=O)O)=NN1c1ccccc1
9,108 to 110 °C,COc1cc(C)cc(Sc2cccc(N)c2C#N)c1
10,104 to 105 °C,O=Cc1ccc(C(O)c2cccnc2)cc1 (stereo unspecified)
11,129 to 130 °C,Fc1ccc(-c2ncn(C3CC3)c2-c2ccncc2)cc1
12,152 to 153 °C,O=C(/C=C/c1cccc(NC(=O)CCCc2ccccc2)c1)NO
13,122 °C,Cc1nc2ccccn2c(=O)c1CCN1CCC(C(=O)c2ccccc2)CC1
14,178 to 180 °C,O=C1ON(c2ccccc2Cl)C(c2ccccc2)C1c1ccccc1 (stereo unspecified)
15,195 to 198 °C,NC(=O)c1nc(-c2ccc(Cl)cc2Cl)c(-c2ccc(Cl)cc2)s1
16,208 to 210 °C,CCn1nc(C)c2c1C(=O)Nc1ccccc1N2C(=O)CCl
17,115 to 117 °C,c1ccc(C(CCc2c[nH]cn2)c2ccccc2)cc1
18,279 to 281 °C,CC(C)n1cc(-c2ccc(C(O)c3ccccc3)cc2)c2c(N)ncnc21 (stereo unspecified)
19,83 to 85 °C,Cc1cccc(-c2[nH]c(C(C)C)nc2-c2cccc(-c3ccc(F)cc3)c2)n1
20,178 to 180 °C,CNC(=O)c1ccc2c(c1C)OC(c1ccccc1)(c1ccccc1)O2
21,213 to 214 °C,O=C(Nc1cc(F)ccc1F)c1cc(-c2ccc(F)cc2F)ccc1O
22,70 to 72 °C,O=C(Cc1ccc(O)cc1)OCc1ccccc1
23,122 to 124 °C,C#CCOc1ccc(CCNC(=O)C(=O)c2ccc(-c3ccc(Cl)cc3)cc2)cc1OC
